Common to all, as to test: Kinase inhibitor library screening, PrestoBlue cell viability, 1 or 10 μM, 72 h
Test [1] has as its system 501Mel-XP cells (Vemurafenib-resistant). The settings on record: 501Mel XP. The method, then:
(§1) After 72 h of treatment, cell viability was assessed using the PrestoBlue Cell Viability Reagent (ThermoFisher Scientific). Measurements were performed with the CLARIOstar Monochromator microplate reader (BMG Labtech).
(§2) Kinase inhibitor library screening. […] Each cell line was treated in its sensitive form (parental), and also as 2 resistant derivatives, which were made resistant to either Vemurafenib (XP) or Dabrafenib (GP). Drugs were added at 2 different concentrations, 1 and 10 μM, for 72 h and cell viability was assessed using the PrestoBlue Cell Viability assay. Results are depicted as % viability compared to untreated cells. Each cell line was analyzed at least in duplicate. […] (XLSX 95 kb)

In test [2] the test system is IGR37-GP cells (Dabrafenib-resistant). The settings on record: IGR37 GP. The method, then: as §1, §2
In test [3] the test system is A375-GP cells (Dabrafenib-resistant). The settings on record: A375 GP. The protocol: as §1, §2
The next test deals with IGR37 cells (parental). The settings on record: IGR37 Parental. The method, then:
as §1, §2

Test [4] relates to 501Mel-GP cells (Dabrafenib-resistant). The settings on record: 501Mel GP. The method, then:
as §1, §2

Test [5] has as its system A375-XP cells (Vemurafenib-resistant). The settings on record: A375 XP. The method, then:
as §1, §2

Test [6] deals with IGR37-XP cells (Vemurafenib-resistant). The settings on record: IGR37 XP. The method, then: as §1, §2
In the next test the test system is A375 cells (parental). The settings on record: A375 Parental. The protocol: as §1, §2
In a further test the test system is 501Mel cells (parental). The settings on record: 501Mel Parental. The protocol: as §1, §2

Take `Cc1nc(N)sc1-c1ccnc(Nc2ccc(N3CCOCC3)cc2)n1` [CYC116]: the “cell viability (kinase inhibitor library screening)” value in test [1] (1μΜ, 72 h) was 94.4%; in test [1] (10μΜ, 72 h), 30.0%; in test [2] (1μΜ, 72 h) it was 92.1%; in [2] (10μΜ, 72 h), 50.1%; in [3] (1μΜ, 72 h), 52.0%; in [3] (10μΜ, 72 h) it was 33.0%. Moreover, the “cell viability (kinase inhibitor library screening)” value with IGR37 cells (parental) (1μΜ, 72 h) stood at 94.2%; in the test on IGR37 cells (parental) (10μΜ, 72 h) it was 59.4%; in test [4] (1μΜ, 72 h) it was 104.5%; in test [4] (10μΜ, 72 h), 44.7%; in [5] (1μΜ, 72 h), 75.4%; in [5] (10μΜ, 72 h) it was 46.7%. For the same compound, the “cell viability (kinase inhibitor library screening)” value was 98.8% in [6] (1μΜ, 72 h); 26.5% in [6] (10μΜ, 72 h); 33.9% in the test with A375 cells (parental) (10μΜ, 72 h); 54.1% in the test with A375 cells (parental) (1μΜ, 72 h); 99.4% in the test with 501Mel cells (parental) (1μΜ, 72 h); 67.9% in the test with 501Mel cells (parental) (10μΜ, 72 h).

On to `Cc1csc(-c2nnc(Nc3ccc(Oc4ncccc4-c4ccnc(N)n4)cc3)c3ccccc23)c1` [AMG 900], for which the “cell viability (kinase inhibitor library screening)” value is recorded as 77.2% in [1] (1μΜ, 72 h); 59.1% in test [1] (10μΜ, 72 h); 79.9% in test [2] (10μΜ, 72 h); 44.4% in test [3] (1μΜ, 72 h); 34.7% in test [3] (10μΜ, 72 h); 94.6% in the test with IGR37 cells (parental) (1μΜ, 72 h). The “cell viability (kinase inhibitor library screening)” value stood at 78.1% in the test with IGR37 cells (parental) (10μΜ, 72 h); 90.4% in test [4] (1μΜ, 72 h); 60.6% in [4] (10μΜ, 72 h); 52.6% in test [5] (1μΜ, 72 h); 47.5% in test [5] (10μΜ, 72 h); 100.0% in test [6] (1μΜ, 72 h). Moreover, the “cell viability (kinase inhibitor library screening)” value in [6] (10μΜ, 72 h) came to 66.5%; in the test on A375 cells (parental) (10μΜ, 72 h), 30.4%; with A375 cells (parental) (1μΜ, 72 h) it was 46.4%; in the test on 501Mel cells (parental) (1μΜ, 72 h) it was 87.5%; with 501Mel cells (parental) (10μΜ, 72 h), 70.0%.

Turning to `Cc1ccc(-n2nc(C(C)(C)C)cc2NC(=O)Nc2ccc(OCCN3CCOCC3)c3ccccc23)cc1` [BIRB 796 (Doramapimod)], the “Cell viability in kinase inhibitor library screening, 501Mel XP, 1μΜ” value in test [1] (1μΜ, 72 h, in %) turned out to be 98.8. For the same compound, in test [1] (10μΜ, 72 h, in %), the “Cell viability in kinase inhibitor library screening, 501Mel XP, 10μΜ” value is 86.9. Moreover, in [2] (10μΜ, 72 h), the Cell viability in kinase inhibitor library screening, IGR37 GP, 10μΜ came to 78.5%. Moreover, the “Cell viability in kinase inhibitor library screening, IGR37 GP, 1μΜ” value in test [2] (1μΜ, 72 h, in %) amounted to 89.9. Moreover, the “Cell viability in kinase inhibitor library screening, A375 GP, 1μΜ” value in [3] (1μΜ, 72 h) worked out at 103.9. Also, the “Cell viability in kinase inhibitor library screening, A375 GP, 10μΜ” value in test [3] (10μΜ, 72 h) stood at 76.2. Further, the “Cell viability in kinase inhibitor library screening, IGR37 Parental, 10μΜ” value in the test with IGR37 cells (parental) (10μΜ, 72 h, in %) is listed as 97.2. Also, the “Cell viability in kinase inhibitor library screening, 501Mel GP, 1μΜ” value in [4] (1μΜ, 72 h, in %) is on record as 105.5. For the same compound, the “Cell viability in kinase inhibitor library screening, 501Mel GP, 10μΜ” value in test [4] (10μΜ, 72 h, in %) is on record as 94.6. Moreover, in test [5] (10μΜ, 72 h), the “Cell viability in kinase inhibitor library screening, A375 XP, 10μΜ” value is listed as 85.3. Further, in test [6] (10μΜ, 72 h), the Cell viability in kinase inhibitor library screening, IGR37 XP, 10μΜ worked out at 71.3%. In [6] (1μΜ, 72 h, in %), the “Cell viability in kinase inhibitor library screening, IGR37 XP, 1μΜ” value is recorded as 94.7. In the test on A375 cells (parental) (10μΜ, 72 h), the “Cell viability in kinase inhibitor library screening, A375 Parental, 10μΜ” value was 86.4. Besides, the “Cell viability in kinase inhibitor library screening, A375 Parental, 1μΜ” value in the test on A375 cells (parental) (1μΜ, 72 h) is listed as 99.9. Further, the “Cell viability in kinase inhibitor library screening, 501Mel Parental, 1μΜ” value in the test on 501Mel cells (parental) (1μΜ, 72 h, in %) worked out at 96.5. Further, in the test on 501Mel cells (parental) (10μΜ, 72 h, in %), the “Cell viability in kinase inhibitor library screening, 501Mel Parental, 10μΜ” value was 84.9.

Take `CCCNC(=O)Nc1ccc(Oc2ncnc3cc(OC)c(OC)cc23)cc1Cl` [KRN 633]: the “cell viability (kinase inhibitor library screening)” value in test [1] (10μΜ, in %) was found to be 80.1; in [2] (1μΜ, in %), 92.2; in test [2] (10μΜ, in %) it was 93.4; in test [3] (1μΜ, in %), 99.0; in [3] (10μΜ, in %), 89.8; in the test with IGR37 cells (parental) (1μΜ, in %), 99.7. Further, the “cell viability (kinase inhibitor library screening)” value in the test on IGR37 cells (parental) (10μΜ, in %) was determined as 109.9; in test [4] (1μΜ, in %) it was 106.2; in test [4] (10μΜ, in %) it was 89.7; in test [5] (10μΜ, in %) it was 103.6; in test [6] (1μΜ, in %), 98.3; in test [6] (10μΜ, in %) it was 68.5. The “cell viability (kinase inhibitor library screening)” value in the test on A375 cells (parental) (1μΜ, in %) is 103.4; in the test on A375 cells (parental) (10μΜ, in %), 92.6; in the test on 501Mel cells (parental) (1μΜ, in %), 94.4; in the test on 501Mel cells (parental) (10μΜ, in %) it was 91.7.

As to `C[C@@H](Oc1cc(-n2cnc3ccc(CN4CCN(C)CC4)cc32)sc1C(N)=O)c1ccccc1C(F)(F)F` [GSK461364], the “Cell viability in kinase inhibitor library screening, 501Mel XP, 1μΜ” value in test [1] (1μΜ, 72 h, in %) was 8.8. The “Cell viability in kinase inhibitor library screening, 501Mel XP, 10μΜ” value in [1] (10μΜ, 72 h, in %) came to 5.4. The compound further yielded a Cell viability in kinase inhibitor library screening, IGR37 GP, 10μΜ in [2] (10μΜ, 72 h) of 69.3%. Moreover, the “Cell viability in kinase inhibitor library screening, IGR37 GP, 1μΜ” value in [2] (1μΜ, 72 h, in %) worked out at 91.5. Moreover, the “Cell viability in kinase inhibitor library screening, A375 GP, 1μΜ” value in test [3] (1μΜ, 72 h) is reported as 12.0. Further, the “Cell viability in kinase inhibitor library screening, A375 GP, 10μΜ” value in [3] (10μΜ, 72 h) was determined as 26.2. Also, in the test with IGR37 cells (parental) (1μΜ, 72 h, in %), the “Cell viability in kinase inhibitor library screening, IGR37 Parental, 1μΜ” value was determined as 29.0. The “Cell viability in kinase inhibitor library screening, IGR37 Parental, 10μΜ” value with IGR37 cells (parental) (10μΜ, 72 h, in %) came out at 57.5. For the same compound, the “Cell viability in kinase inhibitor library screening, 501Mel GP, 1μΜ” value in test [4] (1μΜ, 72 h, in %) was determined as 14.1. Also, the “Cell viability in kinase inhibitor library screening, 501Mel GP, 10μΜ” value in [4] (10μΜ, 72 h, in %) turned out to be 31.3. Besides, the “Cell viability in kinase inhibitor library screening, A375 XP, 1μΜ” value in [5] (1μΜ, 72 h) is 26.8. Also, the “Cell viability in kinase inhibitor library screening, A375 XP, 10μΜ” value in test [5] (10μΜ, 72 h) is reported as 31.7. This compound also gave a Cell viability in kinase inhibitor library screening, IGR37 XP, 10μΜ in test [6] (10μΜ, 72 h) of 28.5%. Besides, in test [6] (1μΜ, 72 h, in %), the “Cell viability in kinase inhibitor library screening, IGR37 XP, 1μΜ” value stood at 70.5. Also, the “Cell viability in kinase inhibitor library screening, A375 Parental, 10μΜ” value in the test with A375 cells (parental) (10μΜ, 72 h) was found to be 29.0. Further, the “Cell viability in kinase inhibitor library screening, A375 Parental, 1μΜ” value in the test on A375 cells (parental) (1μΜ, 72 h) turned out to be 8.9. Also, in the test on 501Mel cells (parental) (1μΜ, 72 h, in %), the “Cell viability in kinase inhibitor library screening, 501Mel Parental, 1μΜ” value was 18.0. Further, the “Cell viability in kinase inhibitor library screening, 501Mel Parental, 10μΜ” value in the test on 501Mel cells (parental) (10μΜ, 72 h, in %) came out at 16.7.

Turning to `COc1cc2c(Oc3ccc4[nH]c(C)cc4c3F)ncnc2cc1OCCCN1CCCC1` [Cediranib (AZD2171)], the “cell viability (kinase inhibitor library screening)” value in test [1] (1μΜ, in %) is on record as 89.8; in test [1] (10μΜ, in %), -0.129; in test [2] (1μΜ, in %), 99.5; in test [2] (10μΜ, in %) it was 4.2; in test [3] (1μΜ, in %) it was 97.5; in [3] (10μΜ, in %), 15.1. Also, the “cell viability (kinase inhibitor library screening)” value in the test with IGR37 cells (parental) (1μΜ, in %) is 94.9; in the test with IGR37 cells (parental) (10μΜ, in %) it was 1.6; in test [4] (1μΜ, in %), 105.5; in [4] (10μΜ, in %), 0.9; in test [5] (1μΜ, in %), 104.3; in [5] (10μΜ, in %), 4.2. In addition, the “cell viability (kinase inhibitor library screening)” value in test [6] (1μΜ, in %) stood at 97.7; in test [6] (10μΜ, in %) it was 1.6; with A375 cells (parental) (1μΜ, in %) it was 105.9; with A375 cells (parental) (10μΜ, in %) it was 27.2; in the test with 501Mel cells (parental) (10μΜ, in %), 1.2.

The values above are taken from article PMC6364417, “Kinase inhibitor library screening identifies synergistic drug combinations effective in sensitive and resistant melanoma cells” (Journal of Experimental & Clinical Cancer Research : CR, 2019).
